Like-named read-outs stand apart in the source and are kept apart here.

A short description of series [1]: Shake flask Log D (SFLogD) determination, pH 7.4. The class given is physicochemical. The settings on record: for logD: shake flask, octan-1-ol / 0.1 M sodium phosphate buffer. The protocol:
Shake Flask Log D (SF Log D) Determination:
The Log D determinations were carried out in a similar manner as described by Hay et al. Drug Metabolism and Disposition 37(9), 1864-1870, 2009, the procedure of which is generally described below.
Log D(7.4) Determination. The distribution coefficient of the test compounds between octan-1-ol and 0.1 M sodium phosphate buffer, pH 7.4, was determined by the shake flask methodology in an automated manner. 0.3 mg of compound was dissolved in 300 μL of octan-1-ol and aliquoted in duplicate into a 96-well block. Three hundred microliters of presaturated buffer (2 liters of buffer presaturated with 10 mL of octan-1-ol) was added to the wells, and the solution was vigorously mixed. After centrifugation, the two phases were separated. Ten microliters of a 1:200 dilution of the octan-1-ol layer and 10 μL of a 1:20 dilution of the buffer layer were directly injected onto the high-performance liquid chromatography (HPLC) (for example using an appropriate C18 column, isocratic elution with 90% methanol, 10% water, 2 mM ammonium acetate, and 0.03% formic acid at flow rate of 2 mL/min). The peak areas were corrected for the dilution factors, and the following calculation was applied to determine the mean log D value at pH 7.4 (log D(7.4)): […]

For series [2], the system named is HepG2 cells. Nature of the series: HepG2_Glu ATP viability 72 hr. Format: cell-based, human. The settings on record: for cytotoxicity in HepG2 cell line, in words: 72 hours, cellular ATP; for IC50: Homo sapiens, HepG2, glucose-supplemented media, ATP viability, 72 hour exposure, read-out: HepG2 Glu 72 hr. The protocol: This assay was run in a similar manner to the assay as described in Marroquin et al. Toxicological Sciences 97(2), 539-547 (2007) with a modification such that the instant assay was run for a 72 hour period as described below.
The aim of this assay was to measure cytotoxicity of a compound by measuring cell viability. […] The reagent used to quantify the ATP present was Promega Cell Titer-Glo. This reagent works by catalyzing luciferin by luciferase in the presence of Mg^2+, ATP, and molecular oxygen, thus emitting a luminescent signal, which was proportional to the amount of ATP present in the sample.
HepG2 cells grown in glucose-supplemented media were plated in 384 well plates at a density of 1000 cells/well for the 72 hour assay in a total medium volume of 25 μl/well. Plates were then incubated for 24 hours at 37° C., 95% humidity, and 5% CO2 before compound dosing.
After 24 hours to allow cells to attach to the plate, HepG2 cells were exposed to test compounds in an 11-point dose response format with a […], ranging from 300 uM to 0.029 uM for 72 hours. All compounds were tested in triplicate. Following the 72 hour exposure to test compounds, cell viability was determined by measuring the concentration of cellular ATP by adding Promega Cell Titer-Glo according to the manufacturer's directions. The plates were then read on a […] plate reader and data is analyzed using ActivityBase software.

Series [3] is described as follows: In vitro intrinsic clearance in human liver microsomes. The class given is in vitro ADME. The settings on record: for CLint scaled at 2 μM: human, read-out: HLM CLint. The protocol:
Determination of In Vitro Intrinsic Clearance in Human Liver Microsomes:
Compounds were prepared as solutions in methanol. The final concentration of methanol in the incubation media was 0.2% (v/v). […] The total incubation volume was 1 mL. The reaction mixture was pre-warmed at 37° C. for 2 min before adding NADPH (1.2 mM). Aliquots (75 μL) of the reaction mixture at 0, 5, 10, 15, and 30 min were added to acetonitrile (200 μL) containing internal standard (terfenadine)(0.05 μg/mL), and the samples were centrifuged at 2500 g for 5 min prior to liquid chromatography/tandem mass spectrometry (LC/MS-MS) analysis of each compound using multiple reaction monitoring (MRM). For control experiments, NADPH was omitted from these incubations.
The microsomal half-life (t1/2) was obtained from a log-linear plot of the substrate depletion vs incubation time and was scaled to hepatic intrinsic clearance (CLint) using the following equation, in which the term t1/2 refers to the in vitro half-life: […]
(Liver microsomes are a subcellular fraction often used to study metabolism.)

The test system of series [4] is isolated rat mitochondria. Kind of series: Respirometric screening technology (RST) assay. The class given is biochemical. The settings on record: for RST inhibitory: inhibition of oxidative phosphorylation. The protocol: Respirometric Screening Technology (RST) Assay:
This assay was carried out substantially as described in Hynes et al. Toxicological Sciences 91(1), 186-200 (2006). More specifically, the assay conditions were similar to those described for the “Fluorescence-based assay of mitochondrial respiration” at page 188-189 of the Hynes reference.
Mitochondrial dysfunction has also been noted as a characteristic feature of many chronic illnesses, including bipolar disorder, Parkinson's disease, schizophrenia, depression, autism, and chronic fatigue syndrome (Morris 2015). Mitochondrial dysfunction can be assessed by measuring mitochondrial oxygen consumption in isolated rat mitochondria using luminescent oxygen-sensitive probes in a respirometric screening technology (RST) assay (Hynes 2006); both inhibition and uncoupling of oxidative phosphorylation in the RST assay were measured for compounds in Table 23.

The target in series [5] is T1, human kappa opioid receptor (hKOR) (Homo sapiens, UniProt P41145).
T1 construct: expressed in transfected cells; host or cells: CHO cells
T1 sequence (P41145 whole entry): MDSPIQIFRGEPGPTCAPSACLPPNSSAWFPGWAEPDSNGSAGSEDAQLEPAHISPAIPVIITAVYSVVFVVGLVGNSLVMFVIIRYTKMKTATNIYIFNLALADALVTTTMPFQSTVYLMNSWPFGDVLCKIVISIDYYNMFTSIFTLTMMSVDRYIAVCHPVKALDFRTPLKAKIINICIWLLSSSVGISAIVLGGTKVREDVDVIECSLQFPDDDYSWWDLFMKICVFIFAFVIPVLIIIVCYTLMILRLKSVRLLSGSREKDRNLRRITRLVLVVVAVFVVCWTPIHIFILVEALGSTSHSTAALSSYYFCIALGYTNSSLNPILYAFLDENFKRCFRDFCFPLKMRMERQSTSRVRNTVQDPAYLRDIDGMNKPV
Kind of series: Kappa radioligand binding assay ([3H]diprenorphine, CHO cell membranes). The settings on record: for Selectivity hMOR/hKOR: selectivity ratio calculated by dividing the hMOR Ki by the hKOR Ki. Summed up: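 Membranes from CHO cells expressing human kappa receptor incubated 1 h at room temperature with compound and 0.6 nM [3H]diprenorphine in 50 mM Tris pH 7.4, 1 mM EDTA, 5 mM MgCl2. Nonspecific binding defined with 10 μM naltrexone; filtration, scintillation counting; IC50 from 4-parameter fit converted to Ki via Cheng-Prusoff.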

Setting [6] is: pH 7.4, human liver microsomal intrinsic clearance.
Setting [7] is: Table 20, radioligand binding, read-out: hKOR binding assay Ki.
The mark [8] stands for this setting: Table 19, geometric mean of 2-6 determinations unless otherwise indicated (Example 3: >=7), read-out: hKOR binding assay Ki.
Setting [9] is: radioligand binding, [3H]diprenorphine, read-out: hKOR Ki.

`Cc1cc(C)cc([C@@H]2CCCN2Cc2ccc(Oc3ccc(C(N)=O)cc3F)cc2)c1` [Comparator E, reference compound]: in series [1], the “Log D, in words” value is “significantly higher Log D values”; the logD – broadly, lipophilicity at a set pH, counting ionised and neutral species – turned out to be 4.6. In series [2], the “cytotoxicity in HepG2 cell line, in words” value (“cytotoxicity” for short) is “cytotoxicity at lower concentrations” and the IC50 was found to be 43000 nM. In addition, the CLint scaled at 2 μM in series [3] (setting [6]) was found to be 30 mL/min/kg. In series [4], the “activity in the RST assay (inhibition / uncoupling of oxidative phosphorylation), in words” value was “μM inhibitory activity” and the RST inhibitory came to 19 µM. For the same molecule, the inhibition constant (Ki) (in general, a dissociation constant, usually derived from enzyme kinetics or from competition with a known ligand) in series [5] (setting [7]) was determined as 0.2 nM. The “Selectivity hMOR/hKOR” value in series [5] was 39.
In series [1], `NC(=O)c1ccc(Oc2ccc(CN3CCC(c4ccccc4)C3)cc2)nc1` (centres unmarked) [Comparator A, reference compound] came in with a log distribution coefficient (logD) of 1.8. In addition, in series [2], the IC50 worked out at 174000 nM. Further, the CLint scaled at 2 μM in series [3] (setting [6]) is 20 mL/min/kg. In series [5] (setting [7]), the Ki was determined as 3.1 nM. For the same molecule, in series [5], the “Selectivity hMOR/hKOR” value is given as 0.03.
Molecule `NC(=O)c1ccc(Oc2ccc(CN3CCCC3c3cccnc3)cc2)c(Cl)c1` (centres unmarked) [Comparator C] displayed a log distribution coefficient (logD) in series [1] of 3.2. Moreover, in series [2], the IC50 was determined as 72000 nM. In addition, the “hepatic / metabolic clearance in human liver microsomes, in words” value (shortened to “hepatic / metabolic clearance”) in series [3] is “high hepatic clearance”. In addition, the CLint scaled at 2 μM in series [3] (setting [6]) stood at 320 mL/min/kg. In addition, in series [4], the “activity in the RST assay (inhibition / uncoupling of oxidative phosphorylation), in words” value was “μM inhibitory activity” and the RST inhibitory came to 21 µM. In addition, the Ki in series [5] (setting [7]) worked out at 1.2 nM. In series [5], the “Selectivity hMOR/hKOR” value is reported as 17.
`NC(=O)c1ccc(Oc2ccc(CN3CCC[C@H]3c3cccc(F)c3)cc2)c(F)c1` [Comparator F]: in series [1], the “Log D, in words” value was “significantly higher Log D values” and the logD came out at 3.7. In series [2], the “cytotoxicity” value is given as “cytotoxicity at lower concentrations” and the IC50 is 56000 nM. The CLint scaled at 2 μM in series [3] (setting [6]) was found to be 36 mL/min/kg. The molecule further gave an RST inhibitory in series [4] of 66 µM. The molecule also displayed a Ki in series [5] (hKOR binding assay Ki, Table 20, radioligand binding) of 1.1 nM. In series [5], the “Selectivity hMOR/hKOR” value is 35.
Regarding `COc1nn(C)cc1[C@@H]1CCCN1Cc1ccc(Oc2ccc(C(N)=O)cc2)cc1` (single isomer, unassigned) [Example 12], in series [1], the “Log D, in words” value is given as “much more in line with drugs that progress to Phase II” and the log distribution coefficient (logD) was 1.4. For the same molecule, in series [2], the “cytotoxicity” value is “little to no cytotoxicity” and the IC50 is > 300000 nM. The “hepatic / metabolic clearance” value in series [3] was “surprisingly low intrinsic metabolic turnover rates”. The CLint scaled at 2 μM in series [3] (setting [6]) stood at 8 mL/min/kg. For the same molecule, the CLint scaled at 2 μM in series [3] (pH 7.4, human liver microsomes) is < 20 mL/min/kg. In addition, in series [4], the “activity in the RST assay (inhibition / uncoupling of oxidative phosphorylation), in words” value is on record as “no significant activity” and the RST inhibitory entry is on record as “No effect”. Also, in series [5], the “selectivity for KOR over MOR, in words” value is “more selective than the phenyl examples, Comparators A and B”; the “Selectivity hMOR/hKOR” value is 31. Moreover, the Ki in series [5] (setting [8]) stood at 1.47 nM. Moreover, the Ki in series [5] (setting [7]) is 1.5 nM. The inhibitory constant (Ki) in series [5] (setting [9]) was in the range of 1 to 3 nM.
As to `NC(=O)c1ccc(Oc2ccc(CN3CCCCC3c3ccccc3)cc2)nc1` (centres unmarked) [Comparator B], the logD in series [1] amounted to 2.7. The IC50 in series [2] stood at 112000 nM. Further, the “hepatic / metabolic clearance” value in series [3] is reported as “high hepatic clearance”. For the same molecule, the CLint scaled at 2 μM in series [3] (setting [6]) was 89 mL/min/kg. Also, the RST inhibitory result in series [4] is given as “No effect”.
With `Cc1nn(C)cc1[C@@H]1CCCN1Cc1ccc(Oc2ccc(C(N)=O)cc2)cc1` [Example 11, 4-(4-{[(2S)-2-(1,3-Dimethyl-1H-pyrazol-4-yl)pyrrolidin-1-yl]methyl}phenoxy)benzamide], in series [1], the “Log D, in words” value was “much more in line with drugs that progress to Phase II” and the logD was 1.9. Also, in series [2], the “cytotoxicity” value was “little to no cytotoxicity” and the IC50 was 267000 nM. Besides, the “hepatic / metabolic clearance” value in series [3] is “surprisingly low intrinsic metabolic turnover rates”. For the same molecule, the CLint scaled at 2 μM in series [3] (setting [6]) is 20 mL/min/kg. Moreover, the CLint scaled at 2 μM in series [3] (pH 7.4, human liver microsomes) is < 20 mL/min/kg. In series [4], the “activity in the RST assay (inhibition / uncoupling of oxidative phosphorylation), in words” value is reported as “no significant activity” and the RST inhibitory result is given as “No effect”. Moreover, in series [5], the “selectivity for KOR over MOR, in words” value is “more selective than the phenyl examples, Comparators A and B”; the “Selectivity hMOR/hKOR” value is recorded as 42. Also, in series [5] (setting [8]), the Ki came out at 1.21 nM. The Ki in series [5] (setting [7]) was determined as 1.2 nM. Besides, the inhibition constant Ki in series [5] (setting [9]) lay in the range of 1 to 3 nM.
Consider `COc1nn(C)cc1C1CCCN1Cc1ccc(Oc2ccc(C(N)=O)cc2F)cc1` (single isomer, unassigned; (-)) [Example 8, (−)-3-Fluoro-4-(4-{[2-(3-methoxy-1-methyl-1H-pyrazol-4-yl)pyrrolidin-1-yl]methyl}phenoxy)benzamide], for which, in series [1], the “Log D, in words” value was “much more in line with drugs that progress to Phase II” and the pH-dependent lipophilicity (logD) amounted to 1.9. Also, in series [2], the “cytotoxicity” value is given as “little to no cytotoxicity” and the IC50 is > 300000 nM. In series [3], the “hepatic / metabolic clearance” value is on record as “surprisingly low intrinsic metabolic turnover rates”. In addition, the CLint scaled at 2 μM in series [3] (setting [6]) turned out to be 12 mL/min/kg. In addition, in series [3] (pH 7.4, human liver microsomes), the CLint scaled at 2 μM was < 20 mL/min/kg. In series [4], the “activity in the RST assay (inhibition / uncoupling of oxidative phosphorylation), in words” value is reported as “no significant activity” and the RST inhibitory entry is listed as “No effect”. For the same molecule, in series [5], the “selectivity for KOR over MOR, in words” value is “more selective than the phenyl examples, Comparators A and B”; the “Selectivity hMOR/hKOR” value was 37. Besides, the inhibition constant Ki in series [5] (setting [8]) was 2.56 nM. Also, the Ki in series [5] (setting [7]) came out at 2.6 nM. For the same molecule, in series [5] (setting [9]), the inhibitory constant (Ki) is 1 to 3 nM.
In series [1], `NC(=O)c1ccc(Oc2ccc(CN3CCCC3c3ccccc3)cc2)nc1` (centres unmarked) [Comparator D] gave a pH-dependent lipophilicity (logD) of 2.3. Moreover, the IC50 in series [2] is 69000 nM. Besides, in series [3] (setting [6]), the CLint scaled at 2 μM was 45 mL/min/kg. In addition, the RST inhibitory entry in series [4] is “No effect”. Besides, the Ki in series [5] (setting [7]) turned out to be 5.8 nM. Further, the “Selectivity hMOR/hKOR” value in series [5] is 28.
